Measured values reported in ChEMBL document CHEMBL4665910, “Novel Thienopyridines as RIPK2 Inhibitors for Treating Inflammatory Bowel Disease” (ACS Med Chem Lett, 2020).
pIC50: −log10 of the molar value.

Molecular target: Receptor-interacting serine/threonine-protein kinase 2 (Homo sapiens, UniProt O43353)
Experiment: Inhibition of RIPK2 (unknown origin) incubated for 1 hr by Lanthascreen TR-FRET assay

Receptor-interacting serine/threonine-protein kinase 2, sequence (O43353 whole entry): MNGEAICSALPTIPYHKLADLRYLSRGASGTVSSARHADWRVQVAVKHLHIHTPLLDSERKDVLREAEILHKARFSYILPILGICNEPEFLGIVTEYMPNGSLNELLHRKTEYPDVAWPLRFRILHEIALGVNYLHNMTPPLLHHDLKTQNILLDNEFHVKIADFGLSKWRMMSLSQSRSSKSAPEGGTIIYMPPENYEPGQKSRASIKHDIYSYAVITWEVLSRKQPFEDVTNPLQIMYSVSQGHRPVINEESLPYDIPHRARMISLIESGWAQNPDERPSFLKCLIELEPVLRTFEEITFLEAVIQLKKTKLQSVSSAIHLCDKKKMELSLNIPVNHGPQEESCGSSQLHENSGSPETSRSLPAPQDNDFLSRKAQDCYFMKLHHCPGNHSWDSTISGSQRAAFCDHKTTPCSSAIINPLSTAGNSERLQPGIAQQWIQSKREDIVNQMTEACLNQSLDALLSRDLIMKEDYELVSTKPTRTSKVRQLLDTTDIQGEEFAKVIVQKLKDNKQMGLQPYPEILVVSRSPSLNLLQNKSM

pIC50, ≥ 8.00:
C1=C(c2cc3c(Nc4ccc5scnc5c4)ccnc3s2)CCNCC1
CC1NCCC1c1cc2c(Nc3cc4ncsc4cc3F)ccnc2s1 (stereo unspecified)
C1=C(c2cc3c(Nc4ccc5scnc5c4)ccnc3s2)C2(CCOC2)NC1 (stereo unspecified)
C1=C(c2cc3c(Nc4ccc5scnc5c4)ccnc3s2)C2(CCOCC2)NC1
CC1NCCC=C1c1cc2c(Nc3ccc4scnc4c3)ccnc2s1 (stereo unspecified)
CC1C(c2cc3c(Nc4ccc5scnc5c4)c(F)cnc3s2)CCCN1C (stereo unspecified)
